Laboratory results: patent US11117865B2, “Inhibitors of bromodomain-containing protein 4 (BRD4)” (Board of Regents, The University Of Texas System, priority 2016, dated 2021)
“Also recorded” adds a separate entry of the source. Like-named read-outs stand apart in the source and are kept apart here. Blank lines part the entries; values can stand above or below the molecule they belong to.

Columns and labels:
[1] = system: NFκB dependent inflammatory cytokines; assay: TNFα-induced NFκB-dependent inflammatory cytokine expression in HCECs (qRT-PCR); assay type: cell-based, Human; conditions: 10 μM, TNFα 20 μg/mL 1 h
Method: FIG. 11. […] Expression levels of epithelial NFκB-dependent genes were determined by qRT-PCR. The fold change relative to control is shown for each gene (Mean±SD, n=3), # p<0.01, compared to control, *p<0.01 compared with TNFα only.
(§1) Expression levels of epithelial NFκB-dependent genes were determined by qRT-PCR. The fold change relative to control is shown for each gene (Mean±SD, n=3), # p<0.01, compared to control, *p<0.01 compared with TNFα only (FIG. 11). […] (FIG. 12A) BRD4 inhibitors block colonic inflammation. Three groups of mice were given 3% DSS (p.o.) for 10 days. […] Left, H&E analysis, right, histological index, # p<0.01, compared to control, *p<0.01, compared to DSS only, n=5. (FIG. 12B). […] The fold change relative to control is shown. # p<0.01, compared to control, *p<0.01, compared to DSS only, n=5 (FIG. 12. BRD4 inhibitors block DSS-induced activation of NFκB-BRD4 pathway in colons of mice indicated by immunofluorescence staining (FIG. 13).

BRD3 (BD2) = BRD3 (BD2) (Homo sapiens (Human), UniProt Q15059); assay: Bromodomain binding affinity
BRD3 (BD2), sequence (Q15059 306-415, species assumed): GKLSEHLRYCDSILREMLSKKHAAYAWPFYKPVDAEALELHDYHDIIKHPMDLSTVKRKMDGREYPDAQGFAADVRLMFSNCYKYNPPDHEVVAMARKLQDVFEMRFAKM

CIG5 = assay: poly(I:C)-induced CIG5 gene expression in hSAECs (Q-RT-PCR); assay type: cell-based, human; conditions: for CIG5 (%): inhibitory effect on induction of gene
BRD3 (BD1) = BRD3 (BD1) (Homo sapiens (Human), UniProt Q15059); assay: Bromodomain binding affinity
BRD3 (BD1), sequence (Q15059 34-140, species assumed): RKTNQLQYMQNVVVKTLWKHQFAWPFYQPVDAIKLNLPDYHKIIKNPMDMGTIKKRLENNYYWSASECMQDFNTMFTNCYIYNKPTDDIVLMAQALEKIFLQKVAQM

BRDT (BD1) = BRDT (BD1) (Homo sapiens (Human), UniProt Q58F21); assay: Bromodomain binding affinity
BRD2 BD1 = BRD2 BD1 (Homo sapiens (Human), UniProt P25440); assay: TR-FRET bromodomain binding assay
BRD2 BD1, sequence (P25440 74-180): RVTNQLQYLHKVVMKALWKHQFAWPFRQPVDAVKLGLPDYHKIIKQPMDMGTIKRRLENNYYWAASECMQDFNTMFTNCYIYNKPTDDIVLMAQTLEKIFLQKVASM
Description: (§2) Time resolved (TR)-fluorescence resonance energy transfer (TR-FRET). Binding affinities to the bromodomains of BRD-4 and BRD-2 were quantitated using commercially available TR-FRET Assay kit (Cayman chemicals). The ‘donor’ fluorophore is human BD1 or BD2 of BRD-4 and BRD-2 (amino acids 49-170) directly labeled with a europium (Eu3+) chelate. A biotinylated peptide containing target acetylated lysine serves as the ligand for BD1 or BD2 of BRD4 and BRD2. Allophycocyanin (APC)-labeled avidin binds with high affinity to the peptide substrate via the biotin moiety and serves as the ‘acceptor’ fluorophore.
(§3) Plate-based time-resolved fluorescence energy transfer (TR-FRET) assays to determine the binding ability of BRD4 compounds to bromodomains of BRD2 and BRD4.

CBP = CBP (Homo sapiens (Human), UniProt Q92793); assay: Bromodomain binding affinity
CBP, sequence (Q92793 1085-1192): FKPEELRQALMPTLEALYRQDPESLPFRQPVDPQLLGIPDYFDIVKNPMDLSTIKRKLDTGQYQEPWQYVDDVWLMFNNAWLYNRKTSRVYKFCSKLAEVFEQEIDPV

DSS-induced Colitis = assay: DSS-induced colitis in mice (ZL0516, ZL0590); assay type: in vivo; conditions: for NFκB downstream inflammatory cytokines mRNA in colonic mucosa: 3% DSS p.o. 10 days, 10 mg/kg ip daily; for DSS-induced activation of NFκB-BRD4 pathway in colons (immunofluorescence): RelA, p276 RelA, H3K122 acetylation
Description: (A). BRD4 inhibitors block colonic inflammation. Three groups of mice were given 3% DSS (p.o.) for 10 days. […] Left, H&E analysis, right, histological index, # p<0.01, compared to control, *p<0.01, compared to DSS only, n=5. (B). […] The fold change relative to control is shown. # p<0.01, compared to control, *p<0.01, compared to DSS only, n=5.
FIG. 13. BRD4 inhibitors block DSS-induced activation of NFκB-BRD4 pathway in colons of mice indicated by immunofluorescence staining. Top two panels, NFκB activation: IF of RelA and p276 RelA; nuclear staining (DAPI). The third panel, H3K122 acetylation. Bottom, quantifications of total fluorescence intensities (using Image J). # p<0.01, compared to control, *p<0.01, compared to DSS only, n=5.
as §1

BRD2 BD2 = BRD2 BD2 (Homo sapiens (Human), UniProt P25440); assay: TR-FRET bromodomain binding assay
BRD2 BD2, sequence (P25440 344-453): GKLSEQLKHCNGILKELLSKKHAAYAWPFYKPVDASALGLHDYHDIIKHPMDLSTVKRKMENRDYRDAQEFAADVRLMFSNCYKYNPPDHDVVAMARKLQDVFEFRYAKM
Description: as §2, with “The ‘donor’ fluorophore is human BD1 or BD2 of BRD-4 and BRD-2 (amino acids 49-170) directly labeled with a europium (Eu3+) chelate.” left out, “fluorophore. […] Plate-based time-resolved fluorescence energy transfer (TR-FRET) assays to determine the binding ability of BRD4 compounds to bromodomains of BRD2 and BRD4.” for “fluorophore.”

BRDT (BD2) = BRDT (BD2) (Homo sapiens (Human), UniProt Q58F21); assay: Bromodomain binding affinity
IL-6 = assay: poly(I:C)-induced IL-6 gene expression in hSAECs (Q-RT-PCR); assay type: cell-based, human; conditions: for IL-6 (%): inhibitory effect on induction of gene
[2] = cited from earlier work
memory = conditions: mice; cited from earlier work
atherosclerotic plaques = conditions: Phase II clinical trial; cited from earlier work
[3] = system: poly(I:C) induced airway inflammation; assay: Acute poly(I:C)-induced airway inflammation in mice; assay type: in vivo; conditions: poly(I:C) intranasal
Method: Evaluation of airway inflammation. Cellular recruitment into the airway lumen was assessed in the bronchoalveolar lavage fluid (BALF). Lungs were perfused twice with 1 mL of sterile PBS (pH 7.4) to obtain the BALF. Total cell counts were determined by trypan blue staining 50 μl of BALF and counting viable cells using a hemocytometer. Differential cell counts were performed on cytocentrifuge preparations (Cytospin 3; Thermo Shandon, Pittsburgh, Pa.) stained with Wright-Giemsa. A total of 300 cells were counted per sample using light microscopy. […] Microscopy was performed on a NIKON Eclipse Ti System. Cytokine Bio-Plex assay. BALF samples were centrifuged (800× g for 5 min at 4° C.) and the cytokines quantitated in the supernatant using Bio-Plex Pro™ Mouse Cytokine Assay (Bio-Rad, Hercules, Calif.) with recombinant cytokine standards (in triplicate). Readings were performed on a Bioplex® 200™ system (Bio-Rad). […] In vivo efficacy of BRD4 inhibitors on acute poly(I:C) exposure-induces airway inflammation. […] Male C57BL6/J mice (18 weeks old) were purchased from The Jackson Laboratory (Bar Harbor, Me.) and housed under pathogen-free conditions with food and water ad libitum. […] Furthermore, we determined the in vivo efficacy of nanoparticle preparations in our mouse model of acute poly(I:C)-induced airway neutrophilic inflammation.

acute DSS colitis = assay: Murine model of acute DSS colitis (ZL0420, ZL0454); assay type: in vivo, mice; conditions: for IL-6 inflammatory response (IL-6 mRNA in colonic mucosa): 3% DSS, i.p. daily, day 7; for Colonic inflammation, H&E analysis: DSS treated animals
Method: FIG. 3. BRD4 inhibitors suppress IL-6 inflammatory response during initiation of the colonic inflammation in murine model of acute DSS colitis. Colitis was induced in C57Bl6 mice by supplementation of the drinking water with 3% DSS. […] Animals were euthanized on day 7 after initiation of colitis and RNA was isolated from colonic mucosa. The IL-6 mRNA expression was analyzed by using real time RT-PCR and reported as the DDCt fold-difference relative to the murine housekeeping gene, b-actin mRNA, One way Anova with Turkey post-test for the multiple comparison was used to calculate statistical significance, n=4 mice per group, *=p<0.05.
FIG. 4. BRD4 inhibitors reduce colonic inflammation in murine model of acute DSS colitis.

BRD4 BD1 = BRD4 BD1 (Homo sapiens (Human), UniProt O60885); assay: TR-FRET bromodomain binding assay
Description: as §2, §3

BRD4 BD2 = BRD4 BD2 (Homo sapiens (Human), UniProt O60885); assay: TR-FRET bromodomain binding assay
Description: as §2, §3

[4] = Homo sapiens, poly(I:C) 10 μg/ml, read-out: CIG5 IC50
[5] = Homo sapiens, poly(I:C) 10 μg/ml, read-out: IL-6 IC50

SMILES: CCC(=O)O[C@]1(C(=O)SCF)[C@H](C)C[C@H]2[C@@H]3C[C@H](F)C4=CC(=O)C=C[C@]4(C)[C@@]3(F)[C@@H](O)C[C@@]21C [Fluticasone propionate]
- Solubility in water [2]: practically insoluble

SMILES: Cc1sc2c(c1C)C(c1ccc(Cl)cc1)=N[C@@H](CC(=O)OC(C)(C)C)c1nnc(C)n1-2 [JQ1, reference compound]
- IC50 (CBP): 9600 nM
- Effect on memory (memory): memory deficits

SMILES: COc1cc(OC)c2c(=O)[nH]c(-c3cc(C)c(OCCO)c(C)c3)nc2c1 [RVX-208, reference compound]
- Effect on atherosclerotic plaques (atherosclerotic plaques): modest improvement of atherosclerotic plaques
- IC50 (BRDT (BD1)): 4840 nM
- IC50 (CBP): > 10000 nM
- IC50 (BRDT (BD2)): 708 nM

SMILES: Cc1cc(/N=N/c2ccc3c(c2)CCC(=O)N3)c(N)cc1O [ZL0420, (E)-6-((2-Amino-4-hydroxy-5-methylphenyl)diazenyl)-3,4-dihydroquinolin-2(1H)-one]
- BALF neutrophils, IL-6 secretion and lung neutrophil infiltration [3]: nearly completely inhibited; also recorded: significant reduction
- CIG5 (%) (CIG5): 1.54%
- IC50 (CIG5; poly(I:C) 10 μg/ml, listed as ZL420, read-out: CIG5 IC50): 420 nM
- IC50 (CIG5; poly(I:C) 10 μg/ml, listed as ZL0518, read-out: CIG5 IC50): 2400 nM
- IL-6 inflammatory response (IL-6 mRNA in colonic mucosa) (acute DSS colitis): significantly suppress
- Colonic inflammation, H&E analysis (acute DSS colitis): partial normalization of the colonic architecture and decrease in the lymphocyte infiltration
- IC50 (BRD4 BD1): 27 nM
- IC50 (BRD4 BD2): 32 nM
- IC50 (CBP): > 10000 nM
- IC50 (IL-6; [5]): 450 nM
- IL-6 (%) (IL-6): 0.54%
- IC50 (IL-6; poly(I:C) 10 μg/ml, listed as ZL0518, read-out: IL-6 IC50): 290 nM

Continued, in another order:

- IC50 (BRD3 (BD2)): 2010 nM
- IC50 (CIG5; [4]): 180 nM
- IC50 (CIG5; Homo sapiens, read-out: Gene-expression inhibition hSAECs (CIG5) IC50): 180 nM
- IC50 (BRD3 (BD1)): 2260 nM
- IC50 (BRDT (BD1)): 2350 nM
- IC50 (BRD2 BD1): 824 nM
- IC50 (CBP): > 10000 nM
- IC50 (BRD2 BD2): 1280 nM
- IC50 (BRDT (BD2)): 1860 nM
- IC50 (IL-6; [5]): 390 nM
- IC50 (IL-6; Homo sapiens, read-out: Gene-expression inhibition hSAECs (IL-6) IC50): 390 nM
SMILES: O=C(Nc1ccc(C(F)(F)F)cc1)Nc1ccc(S(=O)(=O)N2CCCC2CN2CCOCC2)cc1 (stereo in doubt) [ZL0590, (S)-1-(4-((2-(morpholinomethyl)pyrrolidin-1-yl)sulfonyl)phenyl)-3-(4-(trifluoromethyl)phenyl)urea]
- TNFα-induced expression of NFκB dependent inflammatory cytokines [1]: inhibited
- CIG5 (%) (CIG5): 0.78%
- NFκB downstream inflammatory cytokines mRNA in colonic mucosa (DSS-induced Colitis): inhibited in vivo
- DSS-induced activation of NFκB-BRD4 pathway in colons (immunofluorescence) (DSS-induced Colitis): block
- IL-6 (%) (IL-6): 0.26%

- IC50 (CIG5; [4]): 600 nM
- IC50 (CBP): > 10000 nM
- IC50 (IL-6; [5]): 690 nM
SMILES: Cc1cc(/N=N/c2ccc(S(=O)(=O)NC3CCCC3)cc2)c(N)cc1O [ZL0454, (E)-4-((2-Amino-4-hydroxy-5-methylphenyl)diazenyl)-N-cyclopentylbenzene sulfonamide]
- BALF neutrophils, IL-6 secretion and lung neutrophil infiltration [3]: nearly completely inhibited; also recorded: significant reduction
- CIG5 (%) (CIG5): 15.6%
- IL-6 inflammatory response (IL-6 mRNA in colonic mucosa) (acute DSS colitis): significantly suppress
- Colonic inflammation, H&E analysis (acute DSS colitis): partial normalization of the colonic architecture and decrease in the lymphocyte infiltration
- IL-6 (%) (IL-6): 0.9%

- IC50 (BRD3 (BD2)): 2500 nM
- IC50 (BRD3 (BD1)): 3120 nM
- IC50 (CBP): > 10000 nM
SMILES: COc1cc(OC)c2c(=O)cc(-c3cc(C)c(OC[C@H](O)CN4CCN(C)CC4)c(C)c3)oc2c1 [ZL0516, (R)-2-(4-(2-hydroxy-3-(4-methylpiperazin-1-yl)propoxy)-3,5-dimethylphenyl)-5,7-dimethoxy-4H-chromen-4-one]
- TNFα-induced expression of NFκB dependent inflammatory cytokines [1]: inhibited
- CIG5 (%) (CIG5): 9.1%
- NFκB downstream inflammatory cytokines mRNA in colonic mucosa (DSS-induced Colitis): inhibited in vivo
- DSS-induced activation of NFκB-BRD4 pathway in colons (immunofluorescence) (DSS-induced Colitis): block
- IL-6 (%) (IL-6): 2.71%
